# According to ChEMBL document CHEMBL1949530, “Fatty acid amide hydrolase inhibitors. 3: tetra-substituted azetidine ureas with in vivo activity” (Bioorg Med Chem Lett, 2012):
# Columns and labels:
# [1] = Drug metabolism in rat liver microsomes after 10 mins; assay type: ADME, Microsome; settings: read-out: Drug metabolism
# Cannabinoid receptor 2 = Cannabinoid receptor 2 (Homo sapiens, UniProt P34972); experiment: Displacement of [3H]CP55940 from human CB2 receptor
# [2] = target: T1, Fatty-acid amide hydrolase 1 (Rattus norvegicus, UniProt P97612); experiment: Inhibition of rat FAAH using 7-amino-4-methylcoumarine amide as substrate preincubated for 1 hr by fluorimetry
# T1 sequence (P97612 whole entry): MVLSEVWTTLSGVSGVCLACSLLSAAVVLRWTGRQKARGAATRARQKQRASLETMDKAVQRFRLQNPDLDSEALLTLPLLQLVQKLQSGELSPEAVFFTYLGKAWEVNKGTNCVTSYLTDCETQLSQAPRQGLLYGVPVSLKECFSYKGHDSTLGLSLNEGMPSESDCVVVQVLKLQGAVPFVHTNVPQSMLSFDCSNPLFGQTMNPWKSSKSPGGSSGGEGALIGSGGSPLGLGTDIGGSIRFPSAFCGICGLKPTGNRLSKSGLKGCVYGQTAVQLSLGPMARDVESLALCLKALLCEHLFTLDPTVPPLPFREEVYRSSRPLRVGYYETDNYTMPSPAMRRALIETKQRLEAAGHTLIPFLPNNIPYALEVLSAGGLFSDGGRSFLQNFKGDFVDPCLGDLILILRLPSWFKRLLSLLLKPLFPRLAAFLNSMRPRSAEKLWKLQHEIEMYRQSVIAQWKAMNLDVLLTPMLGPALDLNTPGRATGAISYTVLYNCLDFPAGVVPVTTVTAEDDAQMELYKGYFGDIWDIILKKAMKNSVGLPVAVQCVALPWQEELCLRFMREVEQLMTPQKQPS
# Cannabinoid receptor 1 = Cannabinoid receptor 1 (Homo sapiens, UniProt P21554); experiment: Displacement of [3H]SR141716A from human CB1 receptor
# Chain of Cannabinoid receptor 1 (P21554 whole entry): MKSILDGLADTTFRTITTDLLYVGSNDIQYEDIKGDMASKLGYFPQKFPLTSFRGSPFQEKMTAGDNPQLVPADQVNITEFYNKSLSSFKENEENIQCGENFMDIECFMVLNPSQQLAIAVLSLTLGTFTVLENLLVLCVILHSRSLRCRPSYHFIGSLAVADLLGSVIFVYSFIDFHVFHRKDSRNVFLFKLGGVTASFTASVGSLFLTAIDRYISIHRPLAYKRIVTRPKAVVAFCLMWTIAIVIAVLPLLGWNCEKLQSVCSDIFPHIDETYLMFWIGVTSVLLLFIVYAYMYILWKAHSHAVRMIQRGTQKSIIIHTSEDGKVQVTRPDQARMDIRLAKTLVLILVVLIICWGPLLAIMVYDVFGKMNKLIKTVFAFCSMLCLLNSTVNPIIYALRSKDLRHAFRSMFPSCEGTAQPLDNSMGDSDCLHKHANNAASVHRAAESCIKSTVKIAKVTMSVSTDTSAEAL
# [3] = Drug metabolism in human liver microsomes after 10 mins; assay type: ADME, Microsome; settings: read-out: Drug metabolism
# [4] = target: T2, Fatty-acid amide hydrolase 1 (Homo sapiens, UniProt O00519); experiment: Inhibition of human FAAH expressed in CHO cells using 7-amino-4-methylcoumarine amide as substrate preincubated for 1 hr by fluorimetry; assay type: cell-based
# T2 sequence (O00519 whole entry): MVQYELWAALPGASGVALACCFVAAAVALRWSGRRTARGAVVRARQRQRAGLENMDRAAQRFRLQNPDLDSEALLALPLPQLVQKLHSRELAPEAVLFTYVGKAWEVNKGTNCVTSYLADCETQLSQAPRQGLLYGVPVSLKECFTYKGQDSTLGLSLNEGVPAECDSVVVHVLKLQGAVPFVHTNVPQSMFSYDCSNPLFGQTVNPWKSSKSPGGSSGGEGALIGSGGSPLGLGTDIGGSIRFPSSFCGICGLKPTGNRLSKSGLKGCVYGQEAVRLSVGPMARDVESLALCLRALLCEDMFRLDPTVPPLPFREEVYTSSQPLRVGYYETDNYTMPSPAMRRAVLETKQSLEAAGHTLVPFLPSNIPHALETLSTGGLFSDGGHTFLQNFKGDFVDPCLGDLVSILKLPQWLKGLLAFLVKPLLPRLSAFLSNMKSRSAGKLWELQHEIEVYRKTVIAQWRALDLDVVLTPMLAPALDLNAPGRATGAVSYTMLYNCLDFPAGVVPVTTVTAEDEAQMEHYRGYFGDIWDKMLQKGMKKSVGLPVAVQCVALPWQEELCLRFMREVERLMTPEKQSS
# Monoglyceride lipase = target: T3, Monoglyceride lipase (Homo sapiens, UniProt Q99685); experiment: Inhibition of human recombinant N-His6-tagged MAGL expressed in Escherichia coli using 7-Hydroxycoumarinyl arachidonate as substrate by fluorimetry
# T3 sequence (Q99685 whole entry): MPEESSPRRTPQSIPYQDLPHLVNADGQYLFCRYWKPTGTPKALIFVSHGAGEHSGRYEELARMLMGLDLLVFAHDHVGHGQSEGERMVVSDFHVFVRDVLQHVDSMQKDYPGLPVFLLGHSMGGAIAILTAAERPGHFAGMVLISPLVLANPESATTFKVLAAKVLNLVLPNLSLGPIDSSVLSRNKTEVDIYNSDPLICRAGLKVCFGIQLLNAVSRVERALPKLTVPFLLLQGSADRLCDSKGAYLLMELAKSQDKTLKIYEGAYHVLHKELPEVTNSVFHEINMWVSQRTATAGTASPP
# [5] = Cmax in rat at 4 mg/kg, po; assay type: ADME, organism-based; set-up: dose 4 mg/kg, route oral; settings: in vivo
# [6] = target: Voltage-gated inwardly rectifying potassium channel KCNH2 (Homo sapiens, UniProt Q12809); experiment: Inhibition of human ERG
# Chain of Voltage-gated inwardly rectifying potassium channel KCNH2 (Q12809 whole entry): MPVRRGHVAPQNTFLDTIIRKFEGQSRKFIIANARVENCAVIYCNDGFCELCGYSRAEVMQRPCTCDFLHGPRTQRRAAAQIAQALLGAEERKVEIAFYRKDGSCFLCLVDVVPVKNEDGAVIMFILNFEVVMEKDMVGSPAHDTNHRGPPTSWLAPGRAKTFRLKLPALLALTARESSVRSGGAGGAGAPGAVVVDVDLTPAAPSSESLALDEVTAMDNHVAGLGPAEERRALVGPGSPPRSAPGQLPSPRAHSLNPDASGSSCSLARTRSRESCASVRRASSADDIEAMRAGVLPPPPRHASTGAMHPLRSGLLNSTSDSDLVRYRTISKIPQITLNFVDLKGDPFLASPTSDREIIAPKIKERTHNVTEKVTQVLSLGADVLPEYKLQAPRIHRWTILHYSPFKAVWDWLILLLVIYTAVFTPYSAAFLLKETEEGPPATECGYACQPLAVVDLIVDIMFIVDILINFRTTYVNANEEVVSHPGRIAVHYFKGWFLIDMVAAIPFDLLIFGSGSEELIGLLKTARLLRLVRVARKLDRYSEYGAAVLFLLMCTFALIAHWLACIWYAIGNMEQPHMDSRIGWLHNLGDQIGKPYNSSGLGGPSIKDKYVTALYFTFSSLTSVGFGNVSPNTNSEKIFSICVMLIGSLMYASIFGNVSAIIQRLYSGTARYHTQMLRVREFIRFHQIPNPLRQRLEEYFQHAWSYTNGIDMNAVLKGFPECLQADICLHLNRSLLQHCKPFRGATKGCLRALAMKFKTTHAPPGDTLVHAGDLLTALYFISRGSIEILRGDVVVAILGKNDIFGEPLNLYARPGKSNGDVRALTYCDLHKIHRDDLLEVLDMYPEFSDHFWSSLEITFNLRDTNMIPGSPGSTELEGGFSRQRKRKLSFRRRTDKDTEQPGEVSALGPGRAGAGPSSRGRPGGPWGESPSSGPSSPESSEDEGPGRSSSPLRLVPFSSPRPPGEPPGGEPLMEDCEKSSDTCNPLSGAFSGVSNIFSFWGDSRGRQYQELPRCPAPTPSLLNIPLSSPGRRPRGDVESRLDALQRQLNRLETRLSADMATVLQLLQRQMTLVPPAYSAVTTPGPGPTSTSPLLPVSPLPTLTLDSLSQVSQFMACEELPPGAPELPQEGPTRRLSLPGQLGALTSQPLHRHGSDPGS
# [7] = Aqueous solubility of the compound at pH 6.8; assay type: physicochemical; settings: aqueous medium
# Cytochrome P450 1A2 = target: T4, Cytochrome P450 1A2 (Homo sapiens, UniProt P05177); experiment: Inhibition of CYP1A2; assay type: ADME
# T4 sequence (P05177 whole entry): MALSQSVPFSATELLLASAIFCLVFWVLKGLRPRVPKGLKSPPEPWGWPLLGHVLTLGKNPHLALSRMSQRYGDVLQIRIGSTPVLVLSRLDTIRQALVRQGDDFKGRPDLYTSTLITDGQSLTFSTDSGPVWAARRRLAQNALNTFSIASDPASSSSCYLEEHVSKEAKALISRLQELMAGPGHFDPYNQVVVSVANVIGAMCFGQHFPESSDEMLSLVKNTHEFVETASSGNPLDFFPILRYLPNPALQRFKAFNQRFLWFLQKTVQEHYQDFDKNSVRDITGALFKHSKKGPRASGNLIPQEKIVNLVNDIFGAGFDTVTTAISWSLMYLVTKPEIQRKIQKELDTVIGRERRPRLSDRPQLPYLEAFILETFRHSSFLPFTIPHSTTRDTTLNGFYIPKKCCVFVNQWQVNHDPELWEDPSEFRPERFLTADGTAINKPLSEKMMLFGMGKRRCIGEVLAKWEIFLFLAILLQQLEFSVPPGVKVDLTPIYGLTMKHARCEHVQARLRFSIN
# Cytochrome P450 2C9 = Cytochrome P450 2C9 (Homo sapiens, UniProt P11712); experiment: Inhibition of CYP2C9; assay type: ADME
# Chain of Cytochrome P450 2C9 (P11712 whole entry): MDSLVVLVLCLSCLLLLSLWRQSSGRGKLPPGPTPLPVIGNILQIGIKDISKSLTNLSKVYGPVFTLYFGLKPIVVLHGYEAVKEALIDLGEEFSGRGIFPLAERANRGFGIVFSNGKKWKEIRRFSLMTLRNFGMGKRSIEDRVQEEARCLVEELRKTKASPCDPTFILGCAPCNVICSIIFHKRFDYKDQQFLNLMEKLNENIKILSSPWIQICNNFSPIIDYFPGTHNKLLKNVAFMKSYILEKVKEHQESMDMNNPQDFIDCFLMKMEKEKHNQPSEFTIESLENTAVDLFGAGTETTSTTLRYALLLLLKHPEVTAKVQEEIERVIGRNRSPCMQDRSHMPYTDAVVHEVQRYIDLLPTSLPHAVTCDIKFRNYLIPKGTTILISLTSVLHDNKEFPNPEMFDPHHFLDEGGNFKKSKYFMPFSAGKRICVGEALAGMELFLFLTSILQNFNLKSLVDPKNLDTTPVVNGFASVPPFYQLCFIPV
# Plasma [8] = experiment: Plasma concentration in rat at 0.3 mg/kg, iv; assay type: ADME, organism-based; set-up: dose 0.3 mg/kg, route intravenous; settings: in vivo
# [9] = Apparent permeability from apical to basolateral side of human Caco2 cells; assay type: ADME, cell-based; settings: Caco-2
# Cytochrome P450 2D6 = Cytochrome P450 2D6 (Homo sapiens, UniProt P10635); experiment: Inhibition of CYP2D6; assay type: ADME
# Chain of Cytochrome P450 2D6 (P10635 whole entry): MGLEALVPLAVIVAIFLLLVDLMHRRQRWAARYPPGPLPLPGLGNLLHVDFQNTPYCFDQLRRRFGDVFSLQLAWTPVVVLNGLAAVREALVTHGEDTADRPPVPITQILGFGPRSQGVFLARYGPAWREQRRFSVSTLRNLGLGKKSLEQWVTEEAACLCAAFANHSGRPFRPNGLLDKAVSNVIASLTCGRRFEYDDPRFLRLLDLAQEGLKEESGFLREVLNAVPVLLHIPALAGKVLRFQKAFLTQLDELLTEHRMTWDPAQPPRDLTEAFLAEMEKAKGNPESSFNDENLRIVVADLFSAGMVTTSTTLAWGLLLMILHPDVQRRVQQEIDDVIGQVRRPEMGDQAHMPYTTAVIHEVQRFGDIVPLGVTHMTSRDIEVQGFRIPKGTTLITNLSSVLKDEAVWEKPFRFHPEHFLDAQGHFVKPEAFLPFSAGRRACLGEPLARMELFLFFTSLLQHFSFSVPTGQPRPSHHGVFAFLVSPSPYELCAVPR
# Brain [10] = experiment: Drug uptake in rat brain at 3 mg/kg, iv; assay type: ADME, organism-based; set-up: dose 3 mg/kg, route intravenous; settings: in vivo
# [11] = Aqueous solubility of the compound at pH 1; assay type: physicochemical; settings: aqueous medium
# [12] = Oral bioavailability in rat at 4 mg/kg; assay type: ADME, organism-based; settings: in vivo
# Cytochrome P450 3A4 = Cytochrome P450 3A4 (Homo sapiens, UniProt P08684); experiment: Inhibition of CYP3A4; assay type: ADME
# Chain of Cytochrome P450 3A4 (P08684 whole entry): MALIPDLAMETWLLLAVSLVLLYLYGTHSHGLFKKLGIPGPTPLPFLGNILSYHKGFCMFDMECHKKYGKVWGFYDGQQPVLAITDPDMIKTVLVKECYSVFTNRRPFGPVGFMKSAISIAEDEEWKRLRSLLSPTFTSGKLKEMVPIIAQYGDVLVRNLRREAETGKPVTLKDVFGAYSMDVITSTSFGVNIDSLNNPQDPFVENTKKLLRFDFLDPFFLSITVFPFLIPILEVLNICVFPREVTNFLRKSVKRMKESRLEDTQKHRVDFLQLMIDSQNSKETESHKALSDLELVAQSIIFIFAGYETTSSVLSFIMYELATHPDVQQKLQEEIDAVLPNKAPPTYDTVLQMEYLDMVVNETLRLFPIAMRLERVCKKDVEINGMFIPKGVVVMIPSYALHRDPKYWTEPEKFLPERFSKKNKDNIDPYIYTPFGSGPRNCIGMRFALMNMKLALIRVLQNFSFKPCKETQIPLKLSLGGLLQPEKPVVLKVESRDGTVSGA
# Rattus norvegicus [13] = experiment: Inhibition of FAAH in rat assessed as AEA level in brain at 3 mg/kg, iv administered 30 mins prior to anandamide loading measured after 30 mins relative to vehicle treated control; assay type: functional
# Brain [14] = experiment: Drug uptake in rat brain at 0.3 mg/kg, iv; assay type: ADME, organism-based; set-up: dose 0.3 mg/kg, route intravenous; settings: in vivo
# Plasma [15] = experiment: Plasma concentration in rat at 1 mg/kg, iv; assay type: ADME, organism-based; set-up: dose 1 mg/kg, route intravenous; settings: in vivo
# Rattus norvegicus [16] = experiment: Inhibition of FAAH in rat assessed as AEA level in brain at 1 mg/kg, iv administered 30 mins prior to anandamide loading measured after 30 mins relative to vehicle treated control; assay type: functional
# [17] = Volume of distribution in rat at 2 mg/kg, iv; assay type: ADME, organism-based; set-up: dose 2 mg/kg, route intravenous; settings: in vivo
# Cytochrome P450 2C19 = Cytochrome P450 2C19 (Homo sapiens, UniProt P33261); experiment: Inhibition of CYP2C19; assay type: ADME
# Chain of Cytochrome P450 2C19 (P33261 whole entry): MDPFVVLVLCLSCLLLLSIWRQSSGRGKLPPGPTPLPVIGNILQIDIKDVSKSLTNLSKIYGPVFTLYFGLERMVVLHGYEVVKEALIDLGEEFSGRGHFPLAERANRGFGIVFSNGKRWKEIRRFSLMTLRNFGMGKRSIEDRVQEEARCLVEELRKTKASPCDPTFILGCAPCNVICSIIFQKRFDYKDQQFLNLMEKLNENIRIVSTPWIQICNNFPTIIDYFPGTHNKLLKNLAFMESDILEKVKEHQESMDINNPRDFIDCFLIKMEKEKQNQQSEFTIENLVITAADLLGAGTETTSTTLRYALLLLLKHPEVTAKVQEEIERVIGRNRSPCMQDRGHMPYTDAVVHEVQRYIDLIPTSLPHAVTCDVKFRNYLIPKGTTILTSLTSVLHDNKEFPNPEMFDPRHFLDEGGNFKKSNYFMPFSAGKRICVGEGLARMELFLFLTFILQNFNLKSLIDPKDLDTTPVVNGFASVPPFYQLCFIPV
# Rattus norvegicus [18] = experiment: Inhibition of FAAH in iv dosed rat assessed as AEA level in brain administered 30 mins prior to anandamide loading measured after 30 mins; assay type: functional, organism-based
# [19] = Plasma clearance in rat at 2 mg/kg, iv; assay type: ADME, organism-based; set-up: dose 2 mg/kg, route intravenous
# Plasma [20] = experiment: Plasma concentration in rat at 3 mg/kg, iv; assay type: ADME, organism-based; set-up: dose 3 mg/kg, route intravenous; settings: in vivo
# [21] = Apparent permeability from basolateral to apical side of human Caco2 cells; assay type: ADME, cell-based; settings: Caco-2
# Brain [22] = experiment: Drug uptake in rat brain at 1 mg/kg, iv; assay type: ADME, organism-based; set-up: dose 1 mg/kg, route intravenous; settings: in vivo
# Plasma [23] = experiment: Ratio of plasma concentration in rat hepatic portal vein to plasma concentration in rat vena cava at 4 mg/kg, po; assay type: ADME, organism-based; set-up: dose 4 mg/kg, route oral; settings: in vivo
# Rattus norvegicus [24] = experiment: Inhibition of FAAH in rat assessed as AEA level in brain at 0.3 mg/kg, iv administered 30 mins prior to anandamide loading measured after 30 mins relative to vehicle treated control; assay type: functional
# Chain of Cannabinoid receptor 2 (P34972 whole entry): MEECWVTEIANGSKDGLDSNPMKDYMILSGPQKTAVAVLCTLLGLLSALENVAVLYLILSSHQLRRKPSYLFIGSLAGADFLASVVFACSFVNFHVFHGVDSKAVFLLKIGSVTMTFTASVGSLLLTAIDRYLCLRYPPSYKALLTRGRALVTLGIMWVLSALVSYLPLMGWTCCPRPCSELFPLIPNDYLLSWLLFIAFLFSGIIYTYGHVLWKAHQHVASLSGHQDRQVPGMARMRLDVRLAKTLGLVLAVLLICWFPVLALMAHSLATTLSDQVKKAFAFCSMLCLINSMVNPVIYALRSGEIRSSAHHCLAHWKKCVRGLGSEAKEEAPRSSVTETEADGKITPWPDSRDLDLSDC
smiles,measurement,setting,value
CN(Cc1ccccc1)C(=O)N1CC(O[C@H](c2ccc(Cl)cc2)c2cccnc2Cl)C1,metabolised at 10 min,[1],95%
same,Ki,Cannabinoid receptor 2,0.49 µM
same,IC50,[2],4.53 µM
same,Ki,Cannabinoid receptor 1,0.0015 µM
same,metabolised at 10 min,[3],92%
same,IC50,[4],40.8 µM
CN(Cc1ccccc1)C(=O)N1CC(O[C@@H](c2ccc(Cl)cc2)c2cccnc2Cl)C1,metabolised at 10 min,[1],98%
same,Ki,Cannabinoid receptor 2,4.02 µM
same,IC50,[2],0.094 µM
same,Ki,Cannabinoid receptor 1,0.249 µM
same,metabolised at 10 min,[3],94%
same,IC50,[4],0.887 µM
O=C(N1CCCCC1)N1CC(O[C@@H](c2ccc(Cl)cc2)c2cccnc2Cl)C1,IC50,Monoglyceride lipase,22.3 µM
same,metabolised at 10 min,[1],98%
same,Cmax,[5],5 ng/mL
same,IC50,[6],30.8 µM
same,solubility,[7],175 µM
same,IC50,Cytochrome P450 1A2,> 10 µM
same,IC50,Cytochrome P450 2C9,> 10 µM
same,Cp,Plasma [8],8.5 ng/g
same,Papp A→B,[9],31.7 ×10⁻⁶ cm/s
same,IC50,Cytochrome P450 2D6,> 10 µM
same,Drug uptake,Brain [10],137 ng/g
same,solubility,[11],158 µM
same,bioavailability,[12],2.4%
same,IC50,Cytochrome P450 3A4,> 10 µM
same,fold change (FC),Rattus norvegicus [13],5.1
same,Drug uptake,Brain [14],18 ng/g
same,Cp,Plasma [15],72 ng/g
same,fold change (FC),Rattus norvegicus [16],3.3
same,Vd,[17],3.3 L/kg
same,IC50,Cytochrome P450 2C19,2.05 µM
same,IC50,[2],0.112 µM
same,inhibition,Rattus norvegicus [18],Dose-dependent effect
same,clearance,[19],47 mL/min/kg
same,Cp,Plasma [20],109 ng/g
same,Papp B→A,[21],27.5 ×10⁻⁶ cm/s
same,Drug uptake,Brain [22],79 ng/g
same,Ratio,Plasma [23],17
same,metabolised at 10 min,[3],92%
same,fold change (FC),Rattus norvegicus [24],1.7
same,IC50,[4],0.973 µM
O=C(N1CCCCC1)N1CC(O[C@H](c2ccc(Cl)cc2)c2cccnc2Cl)C1,metabolised at 10 min,[1],> 99%
same,IC50,[2],42 µM
same,Ki,Cannabinoid receptor 1,0.007 µM
same,metabolised at 10 min,[3],78%
same,IC50,[4],> 500 µM
O=C(NCc1ccccc1)N1CC(OC(c2ccc(Cl)cc2)c2cccnc2Cl)C1 (racemic),metabolised at 10 min,[1],45%
same,IC50,[2],11.5 µM
same,metabolised at 10 min,[3],20%
same,IC50,[4],> 500 µM
O=C(N(CCO)Cc1ccccc1)N1CC(OC(c2ccc(Cl)cc2)c2cccnc2Cl)C1 (racemic),metabolised at 10 min,[1],83%
same,IC50,[2],> 500 µM
same,metabolised at 10 min,[3],57%
same,IC50,[4],> 500 µM
O=C(N1Cc2ccccc2C1)N1CC(OC(c2ccc(Cl)cc2)c2cccnc2Cl)C1 (racemic),metabolised at 10 min,[1],45%
same,IC50,[2],3.99 µM
same,metabolised at 10 min,[3],17%
same,IC50,[4],24.7 µM
O=C(N1CCc2ccccc2C1)N1CC(OC(c2ccc(Cl)cc2)c2cccnc2Cl)C1 (racemic),metabolised at 10 min,[1],82%
same,IC50,[2],0.531 µM
same,metabolised at 10 min,[3],75%
same,IC50,[4],6.82 µM
